Species: Rattus norvegicus
Assay: Open TG-GATES - Regimen: Single
Type: toxicity, organism-based, Sprague-Dawley
Parameters: regimen Single, gender Male, age 6 weeks
Details: in vivo, po, route gavage; for APTT / Bas / Eos / Fbg / Hb / Ht / Lym / MCH / MCHC / MCV / Mono / Neu / PT / Plat / RBC / Ret / WBC: tissue Blood; for KIDNEY_L / KIDNEY_R / KIDNEY_TOTAL: tissue Kidney; for LIVER: tissue Liver; for A/G / ALP / ALT / AST / BUN / CRE / Ca / Cl / DBIL / GLC / IP / K / LDH / Na / PL / RALB / TBIL / TC / TG / TP / gamma-GTP: tissue Plasma
[1] = 300 mg/kg, 3 h, dose level Middle
[2] = 300 mg/kg, 6 h, dose level Middle
[3] = 300 mg/kg, 9 h, dose level Middle
[4] = 300 mg/kg, 24 h, dose level Middle
[5] = 1000 mg/kg, 3 h, dose level High
[6] = 1000 mg/kg, 6 h, dose level High
[7] = 1000 mg/kg, 9 h, dose level High
[8] = 1000 mg/kg, 24 h, dose level High

O=C(O)c1cc(/N=N/c2ccc(S(=O)(=O)Nc3ccccn3)cc2)ccc1O [SULFASALAZINE]
TERMINAL_BW [1]: 212.5 g
APTT [1]: 18.5 s
Bas [1]: 0%
Eos [1]: 1%
Fbg [1]: 215.2 mg/dL
Hb [1]: 13.1 g/dL
Ht [1]: 38.5%
Lym [1]: 79%
MCH [1]: 21.3 pg
MCHC [1]: 34%
MCV [1]: 62.6 fL
Mono [1]: 2.6%
Neu [1]: 16.2%
PT [1]: 12.9 s
Plat [1]: 115.5 x10_4/uL
RBC [1]: 615.6 x10_4/ul
Ret [1]: 6.7%
WBC [1]: 93.5 x10_2/uL
KIDNEY_L [1]: 1 g
KIDNEY_R [1]: 0.9 g
KIDNEY_TOTAL [1]: 1.9 g
LIVER [1]: 9.7 g
A/G [1]: 1.6
ALP [1]: 897.6 IU/L
ALT [1]: 36.6 IU/L
AST [1]: 61.4 IU/L
BUN [1]: 10.8 mg/dL
CRE [1]: 0.4 mg/dL
Ca [1]: 10.4 mg/dL
Cl [1]: 102.2 meq/L
DBIL [1]: 0.064 mg/dL
GLC [1]: 198.2 mg/dL
IP [1]: 9.6 mg/dL
K [1]: 3.7 meq/L
LDH [1]: 147.2 IU/L
Na [1]: 140.6 meq/L
PL [1]: 140 mg/dL
RALB [1]: 3.3 g/dL
TBIL [1]: 0.1 mg/dL
TC [1]: 71.2 mg/dL
TG [1]: 59.6 mg/dL
TP [1]: 5.4 g/dL
gamma-GTP [1]: 1 IU/L
TERMINAL_BW [2]: 209.1 g
APTT [2]: 18.9 s
Bas [2]: 0%
Eos [2]: 1%
Fbg [2]: 230.2 mg/dL
Hb [2]: 13.2 g/dL
Ht [2]: 39%
Lym [2]: 76.2%
MCH [2]: 21.4 pg
MCHC [2]: 34%
MCV [2]: 63.1 fL
Mono [2]: 3%
Neu [2]: 19%
PT [2]: 12.6 s
Plat [2]: 115.4 x10_4/uL
RBC [2]: 618.8 x10_4/ul
Ret [2]: 7.4%
WBC [2]: 81.1 x10_2/uL
KIDNEY_L [2]: 1 g
KIDNEY_R [2]: 0.9 g
KIDNEY_TOTAL [2]: 1.9 g
LIVER [2]: 9.8 g
A/G [2]: 1.5
ALP [2]: 961.6 IU/L
ALT [2]: 33.8 IU/L
AST [2]: 68.8 IU/L
BUN [2]: 11.4 mg/dL
CRE [2]: 0.4 mg/dL
Ca [2]: 10.8 mg/dL
Cl [2]: 102.2 meq/L
DBIL [2]: 0.072 mg/dL
GLC [2]: 190 mg/dL
IP [2]: 9.5 mg/dL
K [2]: 4 meq/L
LDH [2]: 191.4 IU/L
Na [2]: 140.8 meq/L
PL [2]: 164.4 mg/dL
RALB [2]: 3.4 g/dL
TBIL [2]: 0.1 mg/dL
TC [2]: 88.6 mg/dL
TG [2]: 79.8 mg/dL
TP [2]: 5.7 g/dL
gamma-GTP [2]: 1 IU/L
TERMINAL_BW [3]: 206.7 g
APTT [3]: 19.2 s
Bas [3]: 0%
Eos [3]: 1%
Fbg [3]: 233.2 mg/dL
Hb [3]: 13 g/dL
Ht [3]: 38.1%
Lym [3]: 72.8%
MCH [3]: 21.6 pg
MCHC [3]: 34.1%
MCV [3]: 63.2 fL
Mono [3]: 2.6%
Neu [3]: 22.6%
PT [3]: 12.7 s
Plat [3]: 118.9 x10_4/uL
RBC [3]: 603 x10_4/ul
Ret [3]: 7.5%
WBC [3]: 81.5 x10_2/uL
KIDNEY_L [3]: 0.9 g
KIDNEY_R [3]: 0.9 g
KIDNEY_TOTAL [3]: 1.8 g
LIVER [3]: 8.6 g
A/G [3]: 1.5
ALP [3]: 961.6 IU/L
ALT [3]: 32.4 IU/L
AST [3]: 65.2 IU/L
BUN [3]: 8.8 mg/dL
CRE [3]: 0.3 mg/dL
Ca [3]: 10.5 mg/dL
Cl [3]: 103.2 meq/L
DBIL [3]: 0.064 mg/dL
GLC [3]: 198.6 mg/dL
IP [3]: 9.3 mg/dL
K [3]: 3.5 meq/L
LDH [3]: 183 IU/L
Na [3]: 140.8 meq/L
PL [3]: 149.2 mg/dL
RALB [3]: 3.3 g/dL
TBIL [3]: 0.1 mg/dL
TC [3]: 83.2 mg/dL
TG [3]: 44.2 mg/dL
TP [3]: 5.5 g/dL
gamma-GTP [3]: 1.2 IU/L
TERMINAL_BW [4]: 224.2 g
APTT [4]: 17.4 s
Bas [4]: 0%
Eos [4]: 0.8%
Fbg [4]: 233 mg/dL
Hb [4]: 12.8 g/dL
Ht [4]: 37.6%
Lym [4]: 75%
MCH [4]: 21.2 pg
MCHC [4]: 34.2%
MCV [4]: 62.1 fL
Mono [4]: 2.6%
Neu [4]: 19.8%
PT [4]: 12.4 s
Plat [4]: 122 x10_4/uL
RBC [4]: 605.8 x10_4/ul
Ret [4]: 6.5%
WBC [4]: 104.1 x10_2/uL
KIDNEY_L [4]: 1 g
KIDNEY_R [4]: 1 g
KIDNEY_TOTAL [4]: 1.9 g
LIVER [4]: 10.6 g
A/G [4]: 1.4
ALP [4]: 992.4 IU/L
ALT [4]: 40 IU/L
AST [4]: 62.8 IU/L
BUN [4]: 13.8 mg/dL
CRE [4]: 0.4 mg/dL
Ca [4]: 10.9 mg/dL
Cl [4]: 101.8 meq/L
DBIL [4]: 0.088 mg/dL
GLC [4]: 187.2 mg/dL
IP [4]: 7.2 mg/dL
K [4]: 3.9 meq/L
LDH [4]: 224 IU/L
Na [4]: 140.6 meq/L
PL [4]: 163.6 mg/dL
RALB [4]: 3.3 g/dL
TBIL [4]: 0.1 mg/dL
TC [4]: 86.8 mg/dL
TG [4]: 85.6 mg/dL
TP [4]: 5.6 g/dL
gamma-GTP [4]: 1.2 IU/L
TERMINAL_BW [5]: 210.6 g
APTT [5]: 19.5 s
Bas [5]: 0%
Eos [5]: 1%
Fbg [5]: 221.8 mg/dL
Hb [5]: 13.4 g/dL
Ht [5]: 39.6%
Lym [5]: 72.2%
MCH [5]: 21.2 pg
MCHC [5]: 33.9%
MCV [5]: 62.4 fL
Mono [5]: 2.8%
Neu [5]: 23.2%
PT [5]: 12.7 s
Plat [5]: 116.4 x10_4/uL
RBC [5]: 633.8 x10_4/ul
Ret [5]: 7%
WBC [5]: 94.9 x10_2/uL
KIDNEY_L [5]: 1 g
KIDNEY_R [5]: 1 g
KIDNEY_TOTAL [5]: 1.9 g
LIVER [5]: 9.7 g
A/G [5]: 1.5
ALP [5]: 1059.6 IU/L
ALT [5]: 39.4 IU/L
AST [5]: 67.8 IU/L
BUN [5]: 11.4 mg/dL
CRE [5]: 0.4 mg/dL
Ca [5]: 10.7 mg/dL
Cl [5]: 102.4 meq/L
DBIL [5]: 0.064 mg/dL
GLC [5]: 196.6 mg/dL
IP [5]: 9.4 mg/dL
K [5]: 4 meq/L
LDH [5]: 203.6 IU/L
Na [5]: 139.6 meq/L
PL [5]: 139.4 mg/dL
RALB [5]: 3.4 g/dL
TBIL [5]: 0.1 mg/dL
TC [5]: 76 mg/dL
TG [5]: 46.2 mg/dL
TP [5]: 5.6 g/dL
gamma-GTP [5]: 1 IU/L
TERMINAL_BW [6]: 208.9 g
APTT [6]: 18.8 s
Bas [6]: 0%
Eos [6]: 0.8%
Fbg [6]: 226 mg/dL
Hb [6]: 13.1 g/dL
Ht [6]: 38.3%
Lym [6]: 76.4%
MCH [6]: 21.3 pg
MCHC [6]: 34.2%
MCV [6]: 62.2 fL
Mono [6]: 2.2%
Neu [6]: 19.2%
PT [6]: 12.7 s
Plat [6]: 120.4 x10_4/uL
RBC [6]: 616.4 x10_4/ul
Ret [6]: 7.3%
WBC [6]: 73.5 x10_2/uL
KIDNEY_L [6]: 0.9 g
KIDNEY_R [6]: 1 g
KIDNEY_TOTAL [6]: 1.9 g
LIVER [6]: 9 g
A/G [6]: 1.5
ALP [6]: 928.2 IU/L
ALT [6]: 31.4 IU/L
AST [6]: 66.4 IU/L
BUN [6]: 8.4 mg/dL
CRE [6]: 0.4 mg/dL
Ca [6]: 10.5 mg/dL
Cl [6]: 103.2 meq/L
DBIL [6]: 0.066 mg/dL
GLC [6]: 190.8 mg/dL
IP [6]: 9.4 mg/dL
K [6]: 4 meq/L
LDH [6]: 207.8 IU/L
Na [6]: 141.4 meq/L
PL [6]: 144 mg/dL
RALB [6]: 3.4 g/dL
TBIL [6]: 0.1 mg/dL
TC [6]: 75.4 mg/dL
TG [6]: 59 mg/dL
TP [6]: 5.6 g/dL
gamma-GTP [6]: 1 IU/L
TERMINAL_BW [7]: 206.9 g
APTT [7]: 18.8 s
Bas [7]: 0%
Eos [7]: 0.8%
Fbg [7]: 222.2 mg/dL
Hb [7]: 13.2 g/dL
Ht [7]: 38.4%
Lym [7]: 72.2%
MCH [7]: 21.9 pg
MCHC [7]: 34.4%
MCV [7]: 63.7 fL
Mono [7]: 1.2%
Neu [7]: 25.2%
PT [7]: 12.8 s
Plat [7]: 110.1 x10_4/uL
RBC [7]: 603.4 x10_4/ul
Ret [7]: 7.2%
WBC [7]: 68.2 x10_2/uL
KIDNEY_L [7]: 0.9 g
KIDNEY_R [7]: 1 g
KIDNEY_TOTAL [7]: 1.9 g
LIVER [7]: 8 g
A/G [7]: 1.5
ALP [7]: 772.2 IU/L
ALT [7]: 31.4 IU/L
AST [7]: 67.4 IU/L
BUN [7]: 8.6 mg/dL
CRE [7]: 0.4 mg/dL
Ca [7]: 10.4 mg/dL
Cl [7]: 103.2 meq/L
DBIL [7]: 0.06 mg/dL
GLC [7]: 210.6 mg/dL
IP [7]: 8.6 mg/dL
K [7]: 3.5 meq/L
LDH [7]: 195.4 IU/L
Na [7]: 141.4 meq/L
PL [7]: 137.2 mg/dL
RALB [7]: 3.5 g/dL
TBIL [7]: 0.1 mg/dL
TC [7]: 72.6 mg/dL
TG [7]: 23 mg/dL
TP [7]: 5.8 g/dL
gamma-GTP [7]: 1.4 IU/L
TERMINAL_BW [8]: 214 g
APTT [8]: 17.5 s
Bas [8]: 0%
Eos [8]: 0.8%
Fbg [8]: 216.2 mg/dL
Hb [8]: 13.5 g/dL
Ht [8]: 39.4%
Lym [8]: 82.6%
MCH [8]: 21.7 pg
MCHC [8]: 34.4%
MCV [8]: 63 fL
Mono [8]: 2.4%
Neu [8]: 13%
PT [8]: 13.2 s
Plat [8]: 135.4 x10_4/uL
RBC [8]: 624 x10_4/ul
Ret [8]: 6.2%
WBC [8]: 85.9 x10_2/uL
KIDNEY_L [8]: 1 g
KIDNEY_R [8]: 1 g
KIDNEY_TOTAL [8]: 1.9 g
LIVER [8]: 8.6 g
A/G [8]: 1.5
ALP [8]: 925.2 IU/L
ALT [8]: 40.6 IU/L
AST [8]: 69.8 IU/L
BUN [8]: 13.8 mg/dL
CRE [8]: 0.4 mg/dL
Ca [8]: 10.7 mg/dL
Cl [8]: 100.6 meq/L
DBIL [8]: 0.076 mg/dL
GLC [8]: 191 mg/dL
IP [8]: 8.8 mg/dL
K [8]: 3.8 meq/L
LDH [8]: 232 IU/L
Na [8]: 139.6 meq/L
PL [8]: 142.4 mg/dL
RALB [8]: 3.4 g/dL
TBIL [8]: 0.1 mg/dL
TC [8]: 79.8 mg/dL
TG [8]: 52.8 mg/dL
TP [8]: 5.7 g/dL
gamma-GTP [8]: 1 IU/L

Reference: ChEMBL document CHEMBL3885861, “Open TG-GATES”
